The values below come from ChEMBL document CHEMBL3046781, “Resistance of Helicoverpa assulta (Guenée) (Lepidoptera: Noctuidae) to fenvalerate, phoxim and methomyl in China” (2009).

Common to all, as to type: functional
The subject of assay [1] is Helicoverpa assulta. Nature of the assay: Insecticidal activity against sixth-instar larvae of Helicoverpa assulta YN2 at 21 to 3390 mg/l after 48 hr by chi-squared analysis.
For assay [2], the system named is Helicoverpa assulta. Put plainly: Insecticidal activity against sixth-instar larvae of Helicoverpa assulta FJ2 at 21 to 3390 mg/l after 48 hr by chi-squared analysis.
In assay [3] the test system is Helicoverpa assulta. Nature of the assay: Resistance factor, ratio of LD50 for sixth-instar larvae of Helicoverpa assulta YN7 to LD50 for sixth-instar larvae of Helicoverpa assulta at 21 to 3390 mg/l.
Assay [4] has as its system Helicoverpa assulta. Put plainly: Insecticidal activity against sixth-instar larvae of Helicoverpa assulta FJ3 at 21 to 3390 mg/l after 48 hr by chi-squared analysis.
The test system of assay [5] is Helicoverpa assulta. Nature of the assay: Insecticidal activity against sixth-instar larvae of Helicoverpa assulta HB1 at 21 to 3390 mg/l after 48 hr by chi-squared analysis.
Assay [6] concerns Helicoverpa assulta. Put plainly: Insecticidal activity against sixth-instar larvae of Helicoverpa assulta GZ3 at 21 to 3390 mg/l after 48 hr by chi-squared analysis.
The test system of assay [7] is Helicoverpa assulta. Put plainly: Insecticidal activity against sixth-instar larvae of Helicoverpa assulta AH3 at 21 to 3390 mg/l after 48 hr by chi-squared analysis.
Assay [8] relates to Helicoverpa assulta. Nature of the assay: Resistance factor, ratio of LD50 for sixth-instar larvae of Helicoverpa assulta SD1 to LD50 for sixth-instar larvae of Helicoverpa assulta at 21 to 3390 mg/l.
In assay [9] the test system is Helicoverpa assulta. Nature of the assay: Resistance factor, ratio of LD50 for sixth-instar larvae of Helicoverpa assulta FJ3 to LD50 for sixth-instar larvae of Helicoverpa assulta at 21 to 3390 mg/l.
The test system of assay [10] is Helicoverpa assulta. Put plainly: Insecticidal activity against sixth-instar larvae of Helicoverpa assulta YN8 at 21 to 3390 mg/l after 48 hr by chi-squared analysis.
In assay [11] the test system is Helicoverpa assulta. Nature of the assay: Insecticidal activity against sixth-instar larvae of Helicoverpa assulta HN1 at 21 to 3390 mg/l after 48 hr by chi-squared analysis.
Assay [12] relates to Helicoverpa assulta. Put plainly: Resistance factor, ratio of LD50 for sixth-instar larvae of Helicoverpa assulta SD2 to LD50 for sixth-instar larvae of Helicoverpa assulta at 21 to 3390 mg/l.
In assay [13] the test system is Helicoverpa assulta. Put plainly: Resistance factor, ratio of LD50 for sixth-instar larvae of Helicoverpa assulta AH3 to LD50 for sixth-instar larvae of Helicoverpa assulta at 21 to 3390 mg/l.
For assay [14], the system named is Helicoverpa assulta. Put plainly: Insecticidal activity against sixth-instar larvae of Helicoverpa assulta HB1 at 1.8 to 183360 mg/l after 48 hr by chi-squared analysis.
Assay [15] concerns Helicoverpa assulta. Put plainly: Resistance factor, ratio of LD50 for sixth-instar larvae of Helicoverpa assulta FJ3 to LD50 for sixth-instar larvae of Helicoverpa assulta at 1.8 to 183360 mg/l.
Assay [16] relates to Helicoverpa assulta. Nature of the assay: Insecticidal activity against sixth-instar larvae of Helicoverpa assulta YN2 at 1.8 to 183360 mg/l after 48 hr by chi-squared analysis.
For assay [17], the system named is Helicoverpa assulta. Nature of the assay: Resistance factor, ratio of LD50 for sixth-instar larvae of Helicoverpa assulta YN5 to LD50 for sixth-instar larvae of Helicoverpa assulta at 1.8 to 183360 mg/l.
For assay [18], the system named is Helicoverpa assulta. Nature of the assay: Insecticidal activity against sixth-instar larvae of Helicoverpa assulta FJ2 at 1.8 to 183360 mg/l after 48 hr by chi-squared analysis.
For assay [19], the system named is Helicoverpa assulta. Put plainly: Resistance factor, ratio of LD50 for sixth-instar larvae of Helicoverpa assulta AH3 to LD50 for sixth-instar larvae of Helicoverpa assulta at 1.8 to 183360 mg/l.
In assay [20] the test system is Helicoverpa assulta. Put plainly: Resistance factor, ratio of LD50 for sixth-instar larvae of Helicoverpa assulta GZ5 to LD50 for sixth-instar larvae of Helicoverpa assulta at 1.8 to 183360 mg/l.
Assay [21] has as its system Helicoverpa assulta. Put plainly: Resistance factor, ratio of LD50 for sixth-instar larvae of Helicoverpa assulta GZ3 to LD50 for sixth-instar larvae of Helicoverpa assulta at 1.8 to 183360 mg/l.
The subject of assay [22] is Helicoverpa assulta. Nature of the assay: Insecticidal activity against sixth-instar larvae of Helicoverpa assulta AH2 at 1.8 to 183360 mg/l after 48 hr by chi-squared analysis.
In assay [23] the test system is Helicoverpa assulta. Put plainly: Resistance factor, ratio of LD50 for sixth-instar larvae of Helicoverpa assulta SD1 to LD50 for sixth-instar larvae of Helicoverpa assulta at 1.8 to 183360 mg/l.
The test system of assay [24] is Helicoverpa assulta. Nature of the assay: Insecticidal activity against sixth-instar larvae of Helicoverpa assulta HB2 at 1.8 to 183360 mg/l after 48 hr by chi-squared analysis.
For assay [25], the system named is Helicoverpa assulta. Nature of the assay: Resistance factor, ratio of LD50 for sixth-instar larvae of Helicoverpa assulta YN8 to LD50 for sixth-instar larvae of Helicoverpa assulta at 1.8 to 183360 mg/l.
The test system of assay [26] is Helicoverpa assulta. Put plainly: Resistance factor, ratio of LD50 for sixth-instar larvae of Helicoverpa assulta HB2 to LD50 for sixth-instar larvae of Helicoverpa assulta at 1.8 to 183360 mg/l.
For assay [27], the system named is Helicoverpa assulta. Put plainly: Insecticidal activity against sixth-instar larvae of Helicoverpa assulta YN6 at 39 to 12630 mg/l after 48 hr by chi-squared analysis.
For assay [28], the system named is Helicoverpa assulta. Nature of the assay: Insecticidal activity against sixth-instar larvae of Helicoverpa assulta HB1 at 39 to 12630 mg/l after 48 hr by chi-squared analysis.
In assay [29] the test system is Helicoverpa assulta. Nature of the assay: Resistance factor, ratio of LD50 for sixth-instar larvae of Helicoverpa assulta FJ3 to LD50 for sixth-instar larvae of Helicoverpa assulta at 39 to 12630 mg/l.
Assay [30] relates to Helicoverpa assulta. Put plainly: Resistance factor, ratio of LD50 for sixth-instar larvae of Helicoverpa assulta GZ2 to LD50 for sixth-instar larvae of Helicoverpa assulta at 39 to 12630 mg/l.
The subject of assay [31] is Helicoverpa assulta. Nature of the assay: Resistance factor, ratio of LD50 for sixth-instar larvae of Helicoverpa assulta GZ4 to LD50 for sixth-instar larvae of Helicoverpa assulta at 39 to 12630 mg/l.
The subject of assay [32] is Helicoverpa assulta. Put plainly: Insecticidal activity against sixth-instar larvae of Helicoverpa assulta YN8 at 39 to 12630 mg/l after 48 hr by chi-squared analysis.
The test system of assay [33] is Helicoverpa assulta. Put plainly: Resistance factor, ratio of LD50 for sixth-instar larvae of Helicoverpa assulta YN6 to LD50 for sixth-instar larvae of Helicoverpa assulta at 39 to 12630 mg/l.
Assay [34] concerns Helicoverpa assulta. Put plainly: Resistance factor, ratio of LD50 for sixth-instar larvae of Helicoverpa assulta HN1 to LD50 for sixth-instar larvae of Helicoverpa assulta at 39 to 12630 mg/l.
In assay [35] the test system is Helicoverpa assulta. Put plainly: Resistance factor, ratio of LD50 for sixth-instar larvae of Helicoverpa assulta GZ3 to LD50 for sixth-instar larvae of Helicoverpa assulta at 39 to 12630 mg/l.

The LD50 is the dose expected to kill half of the subjects tested. High values mean a less toxic substance, low ones a more toxic substance. In the case of `CNC(=O)ON=C(C)SC` [METHOMYL], the LD90 in the assay with Helicoverpa assulta [1] is 84.1 µg/g; in the assay with Helicoverpa assulta [2] it was 108 µg/g; with Helicoverpa assulta [4], 137 µg/g; in the assay with Helicoverpa assulta [5] it was 27.6 µg/g; with Helicoverpa assulta [6] it was 66.7 µg/g; with Helicoverpa assulta [7], 44.7 µg/g. For the same compound, the LD90 amounted to 185 µg/g with Helicoverpa assulta [10] and 34 µg/g in the assay on Helicoverpa assulta [11]. For the same compound, the LD50 in the assay with Helicoverpa assulta [1] (Helicoverpa assulta, YN2, 48 h) worked out at 26.6 mg/kg; in the assay on Helicoverpa assulta [2] (Helicoverpa assulta, FJ2, 48 h) it was 28.7 mg/kg; with Helicoverpa assulta [4] (Helicoverpa assulta, FJ3, 48 h), 23.6 mg/kg; in the assay on Helicoverpa assulta [5] (Helicoverpa assulta, HB1, 48 h) it was 12.2 mg/kg; in the assay on Helicoverpa assulta [6] (Helicoverpa assulta, GZ3, 48 h) it was 20.8 mg/kg; in the assay with Helicoverpa assulta [7] (Helicoverpa assulta, AH3, 48 h) it was 18.4 mg/kg. Besides, the LD50 with Helicoverpa assulta [10] (Helicoverpa assulta, YN8, 48 h) worked out at 33.3 mg/kg; in the assay on Helicoverpa assulta [11] (Helicoverpa assulta, HN1, 48 h) it was 6.48 mg/kg. For the same compound, the Ratio in the assay with Helicoverpa assulta [3] came out at 27; with Helicoverpa assulta [8], 3.93; in the assay with Helicoverpa assulta [9], 16.3; in the assay on Helicoverpa assulta [12] it was 6.17; with Helicoverpa assulta [13], 12.7.

Take `CC(C)C(C(=O)OC(C#N)c1cccc(Oc2ccccc2)c1)c1ccc(Cl)cc1` (stereo unspecified) [FENVALERATE]: the LD90 stood at 7.34 µg/g in the assay with Helicoverpa assulta [14]; 673 µg/g in the assay on Helicoverpa assulta [16]; 4.91 µg/g in the assay on Helicoverpa assulta [18]; 259 µg/g in the assay on Helicoverpa assulta [22]; 18 µg/g in the assay on Helicoverpa assulta [24]. Also, the LD50 in the assay on Helicoverpa assulta [14] (Helicoverpa assulta, HB1, 48 h) turned out to be 0.944 mg/kg; in the assay on Helicoverpa assulta [16] (Helicoverpa assulta, YN2, 48 h), 213 mg/kg; in the assay with Helicoverpa assulta [18] (Helicoverpa assulta, FJ2, 48 h) it was 2.08 mg/kg; with Helicoverpa assulta [22] (Helicoverpa assulta, AH2, 48 h) it was 67.3 mg/kg; in the assay with Helicoverpa assulta [24] (Helicoverpa assulta, HB2, 48 h) it was 4.62 mg/kg. The Ratio in the assay on Helicoverpa assulta [15] stood at 9.06; in the assay on Helicoverpa assulta [17] it was 8816; in the assay on Helicoverpa assulta [19] it was 1546; with Helicoverpa assulta [20], 189; with Helicoverpa assulta [21] it was 824; with Helicoverpa assulta [23], 9.8. Further, the Ratio with Helicoverpa assulta [25] was determined as 17622; in the assay on Helicoverpa assulta [26] it was 28.5.

`CCOP(=S)(OCC)O/N=C(\C#N)c1ccccc1` [PHOXIM]: the LD90 in the assay on Helicoverpa assulta [27] worked out at 72 µg/g; with Helicoverpa assulta [28], 18.8 µg/g; in the assay on Helicoverpa assulta [32], 105 µg/g. Further, the LD50 in the assay with Helicoverpa assulta [27] (Helicoverpa assulta, YN6, 48 h) was determined as 21.3 mg/kg; with Helicoverpa assulta [28] (Helicoverpa assulta, HB1, 48 h), 8.16 mg/kg; in the assay on Helicoverpa assulta [32] (Helicoverpa assulta, YN8, 48 h), 40.3 mg/kg. Moreover, the Ratio is on record as 8.15 in the assay on Helicoverpa assulta [29]; 10.8 with Helicoverpa assulta [30]; 7.89 in the assay on Helicoverpa assulta [31]; 9.17 in the assay on Helicoverpa assulta [33]; 4.5 with Helicoverpa assulta [34]; 8.94 with Helicoverpa assulta [35].
